The nature of series [1]: log P determination by HPLC on reversed-phase columns (C 18), analogous to OECD Guideline 117. In kind it is physicochemical. The note with it: for logP[a]: method [a]; for logP[b]: method [b]; for chromatographic logP: reversed-phase HPLC column (C 18). In a few lines:
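Reversed-phase C18 HPLC per OECD 117, two conditions: [a] pH 2.7, 0.1% formic acid water/acetonitrile, log P(HCOOH); [b] pH 7.8, 0.001 M ammonium hydrogencarbonate/acetonitrile, log P(neutral). Both use a 10–95% acetonitrile gradient; values are interpolated from retention times against C3–C16 unbranched alkan-2-ones.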

The next series concerns Boophilus microplus. The series can be described thus: Boophilus microplus - injection test. It is filed as in vivo. Conditions: 20 μg/animal, injection into engorged adult female cattle ticks, assessed after 7 days. The protocol:
1. Boophilus microplus—Injection Test
Solvent: dimethyl sulphoxide
To produce a suitable preparation of active compound, 10 mg of active compound are mixed with 0.5 ml of solvent and the concentrate is diluted with solvent to the desired concentration.
1 μl of the active compound solution is injected into the abdomen of 5 engorged adult female cattle ticks (Boophilus microplus). The animals are transferred into dishes and kept in a climate-controlled room.
Efficacy is assessed after 7 days by laying of fertile eggs. Eggs which are not visibly fertile are stored in a climate-controlled cabinet until the larvae hatch after about 42 days. An efficacy of 100% means that none of the ticks has laid any fertile eggs; 0% means that all the eggs are fertile.

The subject of the next series is Tetranychus urticae. In words: Tetranychus urticae - spray test, OP-resistant (bean leaf discs, 6 days). It is filed as in vivo. Conditions: 500 g/ha, after 6 days; for pest or weed control at 500 g/ha: Tetranychus urticae, foliar, 144 h, read-out: efficacy (spider mites killed). In a few lines:
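Bean leaf discs carrying all stages of OP-resistant Tetranychus urticae were sprayed with compound formulated in acetone/DMF and diluted in water with 1000 ppm emulsifier. Mortality was scored after 6 days as % efficacy, where 100% means all mites were killed.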

A further series relates to Meloidogyne incognita. The series can be described thus: Meloidogyne incognita - test. The note with it: 20 ppm, lettuce, after 14 days. It is filed as in vivo. The protocol: 2. Meloidogyne incognita—Test Solvent: 125.0 parts by weight of acetone To produce a suitable preparation of active compound, 1 part by weight of active compound is mixed with the stated amount of solvent and the concentrate is diluted with water to the desired concentration. Vessels are filled with sand, active compound solution, an egg/larvae suspension of the southern root-knot nematode (Meloidogyne incognita) and lettuce seeds. The lettuce seeds germinate and the plants develop. The galls develop on the roots. After 14 days, the nematicidal efficacy in % is determined by the formation of galls. 100% means that no galls were found; 0% means that the number of galls on the treated plants corresponds to the untreated control.

Where [2] appears, read: pH 2.7, HPLC, acidic range, pH 2.7, 0.1% aqueous formic acid and acetonitrile, read-out: log P(HCOOH).
The mark [3] stands for this setting: pH 2.7, method [a], read-out: logP[a].
The mark [4] stands for this setting: pH 7.8, HPLC, neutral range, pH 7.8, 0.001 molar aqueous ammonium hydrogencarbonate and acetonitrile, read-out: log P(neutral).
[5] abbreviates: pH 7.8, method [b], read-out: logP[b].

The results in this text go back to patent US10206398B2, “Five-membered C-N-attached aryl sulphide and aryl sulphoxide derivatives as pesticides” (BAYER CROPSCIENCE AKTIENGESELLSCHAFT, priority 2014, dated 2019).

“And” between values parts separate entries of the source, which are not always exact repeats. Equal entries are not always repeated. Where two headings read alike, the source gives them in different places.

For the molecule `Cc1cc(F)c(N2C(=O)C(C)N(C(=O)NCC(F)(F)F)C2=O)cc1[S+]([O-])CC(F)(F)F` (mixture of isomers) [compound 88], in series [1], the “logP[a]” value turned out to be 2.75 and the “logP[b]” value came to 2.71. For the same molecule, the “efficacy (laying of fertile eggs)” value in the series on Boophilus microplus turned out to be 100%. Besides, in the series with Tetranychus urticae, the “efficacy (spider mites killed)” value was 100%.

Take `Cc1cc(F)c(N2C(=O)C(C)N(C(=O)NCC(C)C)C2=O)cc1[S+]([O-])CC(F)(F)F` (mixture of isomers) [compound 89]: in series [1], the “logP[a]” value turned out to be 3.10 and the “logP[b]” value is given as 3.02. In addition, the “efficacy (laying of fertile eggs)” value with Boophilus microplus worked out at 100%. Also, the “efficacy (spider mites killed)” value in the series with Tetranychus urticae is 100%.

Turning to `Cc1cc(F)c(N2C(=O)CN(C(=O)NCC3CCCO3)C2=O)cc1[S+]([O-])CC(F)(F)F` (mixture of isomers) [compound 91], in series [1], the “logP[a]” value came to 2.19 and the “logP[b]” value is listed as 2.13. For the same molecule, the “efficacy (laying of fertile eggs)” value in the series on Boophilus microplus was determined as 100%. Besides, the “efficacy (spider mites killed)” value with Tetranychus urticae is recorded as 100%.

In the case of `Cc1cc(F)c(N2C(=O)CN(C(=O)NCC(C)C)C2=O)cc1[S+]([O-])CC(F)(F)F` (stereo not drawn) [Ex. No. 15, 3-[2-Fluoro-4-methyl-5-(2,2,2-trifluoroethylsulphinyl)phenyl]-N-isobutyl-2,4-dioxoimidazolidine-1-carboxamide], the chromatographic logP was 2.72 in series [1] (setting [2]), 2.72 in series [1] (setting [3]), 2.66 in series [1] (setting [4]) and 2.66 in series [1] (setting [5]). The “efficacy (laying of fertile eggs)” value in the series on Boophilus microplus was determined as 100%. For the same molecule, the pest or weed control at 500 g/ha in the series with Tetranychus urticae was 100%.

Take `CCNC(=O)N1C(=O)N(c2cc([S+]([O-])CC(F)(F)F)c(C)cc2F)C(=O)C1C` (stereo not drawn) [Ex. No. 27, N-Ethyl-3-[2-fluoro-4-methyl-5-(2,2,2-trifluoroethylsulphinyl)phenyl]-5-methyl-2,4-dioxoimidazolidine-1-carboxamide]: the chromatographic logP in series [1] (setting [2]) was found to be 2.42; in series [1] (setting [3]), 2.42; in series [1] (setting [4]), 2.39; in series [1] (setting [5]), 2.39. Besides, in the series with Boophilus microplus, the “efficacy (laying of fertile eggs)” value was 100%. Moreover, in the series with Tetranychus urticae, the pest or weed control at 500 g/ha was determined as 100%.

With `Cc1cc(F)c(N2C(=O)CN(C(=O)N3CCOCC3)C2=O)cc1[S+]([O-])CC(F)(F)F` (stereo not drawn) [Ex. No. 125, 3-[2-Fluoro-4-methyl-5-(2,2,2-trifluoroethylsulphinyl)phenyl]-1-(morpholine-4-carbonyl)imidazolidine-2,4-dione], the chromatographic logP in series [1] (setting [2]) was 1.79; in series [1] (setting [3]), 1.75; in series [1] (setting [4]), 1.75; in series [1] (setting [5]), 1.79. Moreover, the “nematicidal efficacy (formation of galls)” value (shortened to “nematicidal efficacy”) with Meloidogyne incognita is listed as 100%. The pest or weed control at 500 g/ha in the series with Tetranychus urticae came to 100%.

On to `Cc1cc(F)c(N2C(=O)CN(C(=O)Nc3cccnc3)C2=O)cc1[S+]([O-])CC(F)(F)F` (stereo not drawn) [compound 20], for which, in series [1], the “logP[a]” value is 1.51 and the “logP[b]” value worked out at 1.98. The “nematicidal efficacy” value in the series on Meloidogyne incognita was found to be 100%. In addition, in the series with Tetranychus urticae, the “efficacy (spider mites killed)” value is 100%.

On to `Cc1cc(F)c(N2C(=O)C(C)N(C(=O)NC3CC3)C2=O)cc1[S+]([O-])CC(F)(F)F` (stereo not drawn) [compound 28], for which, in series [1], the “logP[a]” value is given as 2.46 and the “logP[b]” value is 2.42. Besides, the “efficacy (laying of fertile eggs)” value in the series with Boophilus microplus came out at 100%. In addition, in the series on Tetranychus urticae, the “efficacy (spider mites killed)” value is 100%.

As to `Cc1cc(F)c(N2C(=O)C(C)N(C(=O)NC(C)C)C2=O)cc1[S+]([O-])CC(F)(F)F` (stereo not drawn) [compound 29], in series [1], the “logP[a]” value was 2.77 and the “logP[b]” value came to 2.73. In addition, the “efficacy (laying of fertile eggs)” value in the series with Boophilus microplus is 100%. In addition, the “efficacy (spider mites killed)” value in the series with Tetranychus urticae stood at 100%.

With `Cc1cc(F)c(N2C(=O)CN(C(=O)Nc3ccc(F)cc3)C2=O)cc1[S+]([O-])CC(F)(F)F` (stereo not drawn) [compound 41], in series [1], the “logP[a]” value is recorded as 2.92 and the “logP[b]” value came out at 2.86. For the same molecule, the “efficacy (laying of fertile eggs)” value in the series on Boophilus microplus is on record as 100%. Besides, the “efficacy (spider mites killed)” value in the series with Tetranychus urticae is 100%.

As to `Cc1cc(Cl)c(N2C(=O)CN(C(=O)NC3CC3)C2=O)cc1SCC(F)(F)F` [compound 50], in series [1], the “logP[a]” value is on record as 3.29 and the “logP[b]” value was 3.19. The “nematicidal efficacy” value in the series with Meloidogyne incognita is recorded as 90%. Also, in the series with Tetranychus urticae, the “efficacy (spider mites killed)” value is 100%.

With `Cc1cc(Cl)c(N2C(=O)CN(C(=O)NC3CC3)C2=O)cc1[S+]([O-])CC(F)(F)F` (stereo not drawn) [compound 62], in series [1], the “logP[a]” value is reported as 2.38 and the “logP[b]” value was 2.29. Also, the “efficacy (laying of fertile eggs)” value in the series on Boophilus microplus is 100%. The “efficacy (spider mites killed)” value with Tetranychus urticae stood at 100%.

For the molecule `Cc1cc(F)c(N2C(=O)CN(C(=O)Nc3ccccn3)C2=O)cc1SCC(F)(F)F` [compound 78], in series [1], the “logP[a]” value is 3.37 and the “logP[b]” value is recorded as 3.29. For the same molecule, the “nematicidal efficacy” value with Meloidogyne incognita amounted to 100%. For the same molecule, in the series on Tetranychus urticae, the “efficacy (spider mites killed)” value came to 100%.

For `CCNC(=O)N1CC(=O)N(c2cc(SCC(F)(F)F)c(Cl)cc2Cl)C1=O` [compound 103], in series [1], the “logP[a]” value amounted to 3.25 and the “logP[b]” value came out at 3.26. Further, the “nematicidal efficacy” value in the series with Meloidogyne incognita amounted to 90%. For the same molecule, in the series with Tetranychus urticae, the “efficacy (spider mites killed)” value is reported as 90%.

In the case of `O=C(Nc1ccc(F)cc1)N1CC(=O)N(c2cc(SCC(F)(F)F)c(Cl)cc2Cl)C1=O` [compound 108], in series [1], the “logP[a]” value is recorded as 4.09 and the “logP[b]” value was determined as 4.20. Also, the “nematicidal efficacy” value with Meloidogyne incognita stood at 90%. Further, the “efficacy (spider mites killed)” value in the series with Tetranychus urticae turned out to be 100%.

With `Cc1cc(F)c(N2C(=O)CN(C(=O)N(C)C3CC3)C2=O)cc1SCC(F)(F)F` [compound 121], in series [1], the “logP[a]” value turned out to be 2.99 and the “logP[b]” value is listed as 3.03. In addition, the “nematicidal efficacy” value with Meloidogyne incognita is 90%. Moreover, the “efficacy (spider mites killed)” value in the series on Tetranychus urticae is listed as 100%.

Regarding `Cc1cc(F)c(N2C(=O)CN(C(=O)N(C)CC(C)C)C2=O)cc1[S+]([O-])CC(F)(F)F` (stereo not drawn) [compound 126], in series [1], the “logP[a]” value is 2.6 and the “logP[b]” value is reported as 2.66. In addition, the “nematicidal efficacy” value with Meloidogyne incognita amounted to 100%. Moreover, in the series with Tetranychus urticae, the “efficacy (spider mites killed)” value stood at 100%.

Take `Cc1cc(F)c(N2C(=O)CN(C(=O)N3CCC(F)(F)CC3)C2=O)cc1SCC(F)(F)F` [compound 129]: in series [1], the “logP[a]” value was 3.27 and the “logP[b]” value was found to be 3.29. In addition, the “nematicidal efficacy” value with Meloidogyne incognita is on record as 100%. In the series on Tetranychus urticae, the “efficacy (spider mites killed)” value was 100%.

On to `Cc1cc(F)c(N2C(=O)CN(C(=O)N(C)C)C2=O)cc1SCC(F)(F)F` [compound 130], for which, in series [1], the “logP[a]” value came out at 2.58 and the “logP[b]” value is 2.60. The “nematicidal efficacy” value in the series with Meloidogyne incognita is recorded as 100%. Also, the “efficacy (spider mites killed)” value in the series with Tetranychus urticae is 100% and 90%.

As for `Cc1cc(F)c(N2C(=O)CN(C(=O)N(C)C3CC3)C2=O)cc1[S+]([O-])CC(F)(F)F` (stereo not drawn) [compound 131], in series [1], the “logP[a]” value was found to be 2.08 and the “logP[b]” value was 2.16. In addition, in the series on Meloidogyne incognita, the “nematicidal efficacy” value came to 100%. In the series with Tetranychus urticae, the “efficacy (spider mites killed)” value is given as 100%.

`Cc1cc(F)c(N2C(=O)CN(C(=O)N3CCC(F)(F)CC3)C2=O)cc1[S+]([O-])CC(F)(F)F` (stereo not drawn) [compound 132]: in series [1], the “logP[a]” value came out at 2.41 and the “logP[b]” value is 2.46. The “nematicidal efficacy” value in the series with Meloidogyne incognita is on record as 100%. The “efficacy (spider mites killed)” value in the series on Tetranychus urticae was 90%.
